Test results from patent US8841414B1, “Targeted delivery of therapeutic peptides by thermally responsive biopolymers” (University of Mississippi Medical Center, priority 2006, dated 2014).
Read-outs that look alike come from different tables or passages of the source.

Columns and labels:
Panc-1 cells = experiment: Panc-1 proliferation with 5-FU alone or after Bac7-ELP1-p21 pretreatment (MTS); type: cell-based, human
Experimental: Panc-1 cells were treated for 72 h with 5-F-U with or without pre-treatment with Bac7-ELP1-p21 for 1 hr at 42° C. Cell proliferation was assessed by the MTS assay. Bars, SEM of 3 experiments.
Resistance to Current Chemotherapeutic Agents: One of the therapeutic agents currently used in the clinical setting for pancreatic cancer is 5-Fluorouracil (5-FU).

MCF-7 cells [1] = experiment: Drug IC50 with and without polypeptide pretreatment (MTS cell viability assay); type: cell-based; conditions: for IC50: Homo sapiens, MCF7
Experimental: The effect of drug concentration on cell viability for Dox (A) or etoposide (B) was determined with and without Pen-ELP-H1 pretreatment. Cells were pretreated on day 1 with 20 μM Pen-ELP-H1 and treated on day 4 with drug. Viability was determined on day 7 using the MTS cell viability assay. A single representative experiment is shown (error bars=SD).
The ability of Pen-ELP-H1 to enhance the effectiveness of chemotherapeutic agents was tested in MCF-7 breast cancer cells. Cells were treated on day 1 with 20 μM Pen-ELP-H1 or a control polypeptide which lacks the c-Myc inhibitory sequence (Pen-ELP) for 1 h, rinsed, and placed in fresh media for 3 days. On day 4, the cells were exposed to the drugs at various concentrations for 72 h, and viability was assessed using the MTS cell viability assay. […] Data from the MTS assay was averaged and fit using an exponential equation in order to calculate the IC50 with and without pretreatment.
Table 3. […] Statistical significance was assessed using an unpaired Student's t-test.

MCF-7 cells [2] = experiment: Dox/etoposide toxicity after pretreatment with DFMO and/or Pen-ELP-H1 (MTS); type: cell-based; conditions: then Dox 750 nM for 72 h
Experimental: FIG. 33-1 is a set of graphs that show proliferation with DFMO and Dox or Etoposide. Cells were pretreated with 20 μM Pen-ELP-H1 or 50 μM DFMO on day 1, and treated with 750 nM Dox (A) or 200 μM etoposide (B) on day 4. Cell viability was determined on day 7 using the MTS cell viability assay. Results represent the mean±SEM of 3 independent experiments.
As a transcription factor, c-Myc influences the transcription levels of a large variety of genes. One of the genes under c-Myc control encodes the enzyme ODC (140). ODC catalyzes the first and rate-limiting step in the synthesis of cellular polyamines (148). […] Above, it was shown that interruption of the c-Myc/Max heterodimer by the Pen-ELP-H1 polypeptide caused a reduction in the steady-state levels of ODC mRNA to less than 40% of control levels (93). This observation led to the hypothesis that modulation of Dox and etoposide toxicity may be due to a reduction in the amount of ODC in the cell. In order to test this hypothesis, a combination of pretreatment with the ODC inhibitor DFMO and/or Pen-ELP-H1 was used in the Dox and etoposide toxicity assay. MCF-7 cells were pretreated with Pen-ELP-H1 (20 μM), DFMO (50 μM), or both before a 72 h exposure to Dox (750 nM) or etoposide (200 μM). […] Similar results were obtained with Pen-ELP-H1 and/or DFMO combined with etoposide (FIG. 33-1 B).

HeLa cells = experiment: Drug IC50 with and without Pen-ELP-H1 pretreatment; type: cell-based, human; conditions: for IC50: Homo sapiens
Experimental: (§1) Table 4. IC50 values were collected for HeLa and MES-SA cells. The Dox and etoposide IC50 was determined with and without Pen-ELP-H1 pretreatment. Curves were fit using an exponential equation, and the IC50 value shown represents the mean±SEM of at least 5 independent determinations each performed with 4 replicates per drug concentration. Statistical significance was assessed using an unpaired Student's t-test.

MCF-7 cells [3] = experiment: Cell cycle distribution by BrdU and propidium iodide flow cytometry; type: cell-based; conditions: for G1 fraction / S phase fraction: day 5; for effect on cell cycle distribution: agent alone (Pen-ELP-H1 20 μM, Dox 100 nM, etoposide 1 μM)
Experimental: FIG. 31 is a set of graphs that show cell cycle analysis of MCF-7 Cells after Pen-ELP-H1 Pretreatment before Dox or Etoposide. A. Cells were pretreated with 20 μM Pen-ELP-H1 on day 1 and 100 nM Dox or 1 μM etoposide on day 4 and analyzed on day 5 by flow cytometry with BrdU and propidium iodide staining Raw data for a single representative experiment is shown. 4 independent experiments with Dox (B) and etoposide (C) were averaged. Percentages were determined by analysis of 5000 cells/sample, and results shown represent the mean±SEM.
To gain more insight into the effect of polypeptide and drug treatment, the cell cycle distribution of MCF-7 cells was examined. Cells were treated as above with 20 μM Pen-ELP-H1 on day 1 and Dox (100 nM) or etoposide (1 μM) on day 4. On day 5, the cells were pulsed with BrdU and stained with propidium iodide for flow cytometric analysis of the cell cycle distribution. BrdU was used to accurately estimate the fraction of cells in S-phase, and this was combined with propidium iodide staining to denote each phase of the cell cycle (FIG. 31A). […] The pattern observed with Dox was enhanced upon pretreatment with Pen-ELP-H1, where the G1 fraction increased from about 48% to 53%, and the S phase fraction was reduced from 8% to 5% as compared to treatment with Dox alone (FIG. 31B).

MES-SA cells = experiment: Drug IC50 with and without Pen-ELP-H1 pretreatment; type: cell-based; conditions: for IC50: Homo sapiens
Experimental: as §1

c-Myc = c-Myc (UniProt P01106); experiment: cell-based or functional assay
Sequence of UniProt P01106 (P01106 whole entry): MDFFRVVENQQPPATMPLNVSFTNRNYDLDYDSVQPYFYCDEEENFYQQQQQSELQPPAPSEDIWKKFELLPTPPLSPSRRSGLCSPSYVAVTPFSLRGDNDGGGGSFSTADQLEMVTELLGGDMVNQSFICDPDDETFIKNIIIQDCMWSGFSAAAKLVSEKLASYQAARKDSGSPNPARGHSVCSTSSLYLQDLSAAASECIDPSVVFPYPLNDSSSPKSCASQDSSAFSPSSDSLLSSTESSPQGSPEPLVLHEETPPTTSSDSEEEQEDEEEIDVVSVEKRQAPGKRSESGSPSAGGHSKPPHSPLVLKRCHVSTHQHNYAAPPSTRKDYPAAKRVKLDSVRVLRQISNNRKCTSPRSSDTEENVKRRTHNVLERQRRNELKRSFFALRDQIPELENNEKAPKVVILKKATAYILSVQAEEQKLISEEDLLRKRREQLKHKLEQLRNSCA

[4] = 20 μM Pen-ELP on day 1, drug on day 4 for 72 h, read-out: IC50 after Pen-ELP pretreatment (mean ± SEM)
[5] = 20 μM Pen-ELP-H1 on day 1, drug on day 4 for 72 h, read-out: IC50 after Pen-ELP-H1 pretreatment (mean ± SEM)
[6] = no pretreatment, 72 h drug exposure, read-out: IC50 (mean ± SEM)
[7] = no pretreatment, read-out: IC50 (mean ± SEM)
[8] = read-out: IC50 after Pen-ELP-H1 pretreatment (mean ± SEM)
[9] = Dox 100 nM after 20 μM Pen-ELP-H1 pretreatment

| IC50 (MCF-7 cells [1]; [4]) [nM] | IC50 (MCF-7 cells [1]; [5]) [nM] | IC50 (MCF-7 cells [1]; [6]) [nM] | reduction of IC50 by Pen-ELP-H1 pretreatment (HeLa cells) [fold] | IC50 (HeLa cells; [7]) [nM] | IC50 (HeLa cells; [8]) [nM] | reduction of IC50 by Pen-ELP-H1 pretreatment (MES-SA cells) [fold] | IC50 (MES-SA cells; [7]) [nM] | IC50 (MES-SA cells; [8]) [nM] | reduction in IC50 with Pen-ELP-H1 pretreatment (MCF-7 cells [1]; MCF-7) | Molecule | effect on cell cycle distribution (MCF-7 cells [3]) | also measured |
| --- | --- | --- | --- | --- | --- | --- | --- | --- | --- | --- | --- | --- |
|  |  |  |  |  |  |  |  |  |  | O=c1[nH]cc(F)c(=O)[nH]1 [5-FU, 5-Fluorouracil] |  | sensitivity of Panc-1 cells to treatment (Panc-1 cells; 72 h): highly resistant; effect of increasing the concentration on cell proliferation (Panc-1 cells; beyond 10 μM, 72 h): no increasing effect on cell proliferation; cell proliferation after pretreatment with Bac7-ELP1-p21 (Panc-1 cells; pretreated 1 h at 42° C. with Bac7-ELP1-p21, then 5-FU 72 h): dramatically reduced |
|  |  |  |  |  |  |  |  |  |  | NCCC[C@](N)(C(=O)O)C(F)F [DFMO, α-difluoromethylornithine] |  | enhancement of Dox-induced cell killing by pretreatment (MCF-7 cells [2]; Pen-ELP-H1 20 μM or DFMO 50 μM): enhanced the Dox-induced cell killing by similar amounts; enhancement of Dox toxicity by pretreatment with the combination of Pen-ELP-H1 and DFMO (MCF-7 cells [2]; Pen-ELP-H1 20 μM plus DFMO 50 μM): no greater enhancement of Dox toxicity than either agent used alone |
| 777 ± 75.1 | 504 ± 35.3 | 752 ± 21.6 | 1.5 | 13.9 ± 1.3 | 9.4 ± 1.2 | 2 | 33.7 ± 7.1 | 16.3 ± 1.6 | about 1.5 fold | COc1cccc2c1C(=O)c1c(O)c3c(c(O)c1C2=O)C[C@@](O)(C(=O)CO)C[C@@H]3O[C@H]1C[C@H](N)[C@H](O)[C@H](C)O1 [Doxorubicin] | arrest in G1 and G2/M at the expense of S phase | G1 fraction (MCF-7 cells [3]; [9]): 53%; S phase fraction (MCF-7 cells [3]; [9]): 5%; G1 fraction (MCF-7 cells [3]; Dox 100 nM alone): about 48%; S phase fraction (MCF-7 cells [3]; Dox 100 nM alone): 8% |
| 187000 ± 13800 | 141000 ± 3500 | 210000 ± 12400 | 1.4 | 630 ± 59.2 | 465 ± 45.4 | 1.8 | 17300 ± 3100 | 9800 ± 3100 | about 1.5 fold | COc1cc([C@@H]2c3cc4c(cc3[C@@H](O[C@@H]3O[C@@H]5CO[C@@H](C)O[C@H]5[C@H](O)[C@H]3O)[C@H]3COC(=O)[C@H]23)OCO4)cc(OC)c1O [Etoposide] | accumulation in both G1 and G2/M | effect on cell cycle distribution after Pen-ELP-H1 pretreatment (MCF-7 cells [3]; 20 μM Pen-ELP-H1 day 1, etoposide 1 μM day 4): slightly enhanced the etoposide-induced accumulation in G1 |
|  |  |  |  |  |  |  |  |  |  | Pen-ELP1-H1 |  | steady-state levels of ODC mRNA (% of control levels) (c-Myc): < 40 |

| Molecule | IC50 (MCF-7 cells [1]; [4]) [nM] | IC50 (MCF-7 cells [1]; [5]) [nM] | IC50 (MCF-7 cells [1]; [6]) [nM] | reduction of IC50 by Pen-ELP-H1 pretreatment (HeLa cells) [fold] | IC50 (HeLa cells; [7]) [nM] | IC50 (HeLa cells; [8]) [nM] | reduction of IC50 by Pen-ELP-H1 pretreatment (MES-SA cells) [fold] | IC50 (MES-SA cells; [7]) [nM] | IC50 (MES-SA cells; [8]) [nM] | reduction in IC50 with Pen-ELP-H1 pretreatment (MCF-7 cells [1]; MCF-7) | effect on cell cycle distribution (MCF-7 cells [3]) | also measured |
| --- | --- | --- | --- | --- | --- | --- | --- | --- | --- | --- | --- | --- |
| CC[C@@]1(O)C(=O)OCc2c1cc1n(c2=O)Cc2cc3ccccc3nc2-1 [Camptothecin] | 229 ± 46.4 | 235 ± 5.8 | 235 ± 9.8 |  |  |  |  |  |  |  |  | effect of Pen-ELP-H1 or Pen-ELP pretreatment on cell killing by the drug (MCF-7 cells [1]; MCF-7): no significant effect |
